Experiments:
Septoria tritici = assay: Test D: preventive spray on wheat seedlings, wheat leaf blotch, visual disease rating; type: in vivo; conditions: 200 ppm test suspension, Septoria tritici inoculated the day after spraying; for pest or weed control at 200 ppm: Zymoseptoria tritici, 504 h
Experimental: General protocol for preparing test suspensions for Tests A-G: the test compounds were first dissolved in acetone in an amount equal to 3% of the final volume and then suspended at the desired concentration (in ppm) in acetone and purified water (50/50 mix by volume) containing 250 ppm of the surfactant Trem® 014 (polyhydric alcohol esters). The resulting test suspensions were then used in Tests A-G. Each test was conducted in triplicate, and the results were averaged. Spraying a 200 ppm test suspension to the point of run-off on the test plants was the equivalent of a rate of 800 g/ha. Unless otherwise indicated, the rating values indicate a 200 ppm test suspension was used. (An asterisk “*” next to the rating value indicates a 40 ppm test suspension was used.) The test suspension was sprayed to the point of run-off on wheat seedlings. The following day the seedlings were inoculated with a spore suspension of Septoria tritici (the causal agent of wheat leaf blotch) and incubated in saturated atmosphere at 24° C. for 48 h. and then the seedlings were moved to a growth chamber at 20° C. for 19 additional days, after which time visual disease ratings were made. Results for Tests A-G are given in Table A. In the Table, a rating of 100 indicates 100% disease control and a rating of 0 indicates no disease control (relative to the controls). A hyphen (-) indicates no test results.

Septoria nodorum = assay: Test C: preventive spray on wheat seedlings, Septoria glume blotch, visual disease rating; type: in vivo; conditions: 200 ppm test suspension, Septoria nodorum inoculated the day after spraying; for pest or weed control at 200 ppm: Parastagonospora nodorum, 264 h
Experimental: General protocol for preparing test suspensions for Tests A-G: the test compounds were first dissolved in acetone in an amount equal to 3% of the final volume and then suspended at the desired concentration (in ppm) in acetone and purified water (50/50 mix by volume) containing 250 ppm of the surfactant Trem® 014 (polyhydric alcohol esters). The resulting test suspensions were then used in Tests A-G. Each test was conducted in triplicate, and the results were averaged. Spraying a 200 ppm test suspension to the point of run-off on the test plants was the equivalent of a rate of 800 g/ha. Unless otherwise indicated, the rating values indicate a 200 ppm test suspension was used. (An asterisk “*” next to the rating value indicates a 40 ppm test suspension was used.) The test suspension was sprayed to the point of run-off on wheat seedlings. The following day the seedlings were inoculated with a spore suspension of Septoria nodorum (the causal agent of Septoria glume blotch) and incubated in a saturated atmosphere at 24° C. for 48 h, and then moved to a growth chamber at 20° C. for 9 days, after which time visual disease ratings were made. Results for Tests A-G are given in Table A. In the Table, a rating of 100 indicates 100% disease control and a rating of 0 indicates no disease control (relative to the controls). A hyphen (-) indicates no test results.

[1] = test system: Blumeria graminis f. sp. tritici; assay: Test G: preventive spray on wheat seedlings, wheat powdery mildew, visual disease rating;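 on all read-outs here: rated 8 days after spore dust inoculation at 20 °C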; type: in vivo; conditions: 200 ppm test suspension, Blumeria graminis f. sp. tritici inoculated the day after spraying; for pest or weed control at 200 ppm: 192 h
Experimental: General protocol for preparing test suspensions for Tests A-G: the test compounds were first dissolved in acetone in an amount equal to 3% of the final volume and then suspended at the desired concentration (in ppm) in acetone and purified water (50/50 mix by volume) containing 250 ppm of the surfactant Trem® 014 (polyhydric alcohol esters). The resulting test suspensions were then used in Tests A-G. Each test was conducted in triplicate, and the results were averaged. Spraying a 200 ppm test suspension to the point of run-off on the test plants was the equivalent of a rate of 800 g/ha. Unless otherwise indicated, the rating values indicate a 200 ppm test suspension was used. (An asterisk “*” next to the rating value indicates a 40 ppm test suspension was used.) The test suspension was sprayed to the point of run-off on wheat seedlings. The following day the seedlings were inoculated with a spore dust of Blumeria graminis f. sp. tritici (also known as Erysiphe graminis f. sp. tritici, the causal agent of wheat powdery mildew) and incubated in a growth chamber at 20° C. for 8 days, after which time visual disease ratings were made. Results for Tests A-G are given in Table A. In the Table, a rating of 100 indicates 100% disease control and a rating of 0 indicates no disease control (relative to the controls). A hyphen (-) indicates no test results.

[2] = test system: Puccinia recondita f. sp. tritici; assay: Test F: preventive spray on wheat seedlings, wheat leaf rust, visual disease rating; type: in vivo; conditions: 200 ppm test suspension, Puccinia recondita f. sp. tritici inoculated the day after spraying; for pest or weed control at 200 ppm: 168 h
Experimental: General protocol for preparing test suspensions for Tests A-G: the test compounds were first dissolved in acetone in an amount equal to 3% of the final volume and then suspended at the desired concentration (in ppm) in acetone and purified water (50/50 mix by volume) containing 250 ppm of the surfactant Trem® 014 (polyhydric alcohol esters). The resulting test suspensions were then used in Tests A-G. Each test was conducted in triplicate, and the results were averaged. Spraying a 200 ppm test suspension to the point of run-off on the test plants was the equivalent of a rate of 800 g/ha. Unless otherwise indicated, the rating values indicate a 200 ppm test suspension was used. (An asterisk “*” next to the rating value indicates a 40 ppm test suspension was used.) The test suspension was sprayed to the point of run-off on wheat seedlings. The following day the seedlings were inoculated with a spore suspension of Puccinia recondita f. sp. tritici (the causal agent of wheat leaf rust) and incubated in a saturated atmosphere at 20° C. for 24 h, and then moved to a growth chamber at 20° C. for 6 days, after which time visual disease ratings were made. Results for Tests A-G are given in Table A. In the Table, a rating of 100 indicates 100% disease control and a rating of 0 indicates no disease control (relative to the controls). A hyphen (-) indicates no test results.

Botrytis cinerea = assay: Test A: preventive spray on tomato seedlings, tomato Botrytis, visual disease rating; type: in vivo; conditions: 120 h, 200 ppm test suspension, Botrytis cinerea inoculated the day after spraying
Experimental: General protocol for preparing test suspensions for Tests A-G: the test compounds were first dissolved in acetone in an amount equal to 3% of the final volume and then suspended at the desired concentration (in ppm) in acetone and purified water (50/50 mix by volume) containing 250 ppm of the surfactant Trem® 014 (polyhydric alcohol esters). The resulting test suspensions were then used in Tests A-G. Each test was conducted in triplicate, and the results were averaged. Spraying a 200 ppm test suspension to the point of run-off on the test plants was the equivalent of a rate of 800 g/ha. Unless otherwise indicated, the rating values indicate a 200 ppm test suspension was used. (An asterisk “*” next to the rating value indicates a 40 ppm test suspension was used.) The test suspension was sprayed to the point of run-off on tomato seedlings. The following day the seedlings were inoculated with a spore suspension of Botrytis cinerea (the causal agent of tomato Botrytis) and incubated in saturated atmosphere at 20° C. for 48 h, and then moved to a growth chamber at 24° C. for 3 additional days, after which time visual disease ratings were made. Results for Tests A-G are given in Table A. In the Table, a rating of 100 indicates 100% disease control and a rating of 0 indicates no disease control (relative to the controls). A hyphen (-) indicates no test results.

[3] = test system: Puccinia recondita f. sp. tritici; assay: Test E: spray after inoculation of wheat seedlings, wheat leaf rust, visual disease rating; type: in vivo; conditions: 200 ppm test suspension, sprayed after inoculation with Puccinia recondita f. sp. tritici
Experimental: General protocol for preparing test suspensions for Tests A-G: the test compounds were first dissolved in acetone in an amount equal to 3% of the final volume and then suspended at the desired concentration (in ppm) in acetone and purified water (50/50 mix by volume) containing 250 ppm of the surfactant Trem® 014 (polyhydric alcohol esters). The resulting test suspensions were then used in Tests A-G. Each test was conducted in triplicate, and the results were averaged. Spraying a 200 ppm test suspension to the point of run-off on the test plants was the equivalent of a rate of 800 g/ha. Unless otherwise indicated, the rating values indicate a 200 ppm test suspension was used. (An asterisk “*” next to the rating value indicates a 40 ppm test suspension was used.) Wheat seedlings were inoculated with a spore suspension of Puccinia recondita f. sp. tritici (the causal agent of wheat leaf rust) and incubated in a saturated atmosphere at 20° C. for 24 h, and then moved to a growth chamber at 20° C. for 2 days. At the end of this time the, the test suspension was sprayed to the point of run-off on the wheat seedlings, and then the seedlings were moved back to the growth chamber at 20° C. for 4 days. Upon removal, visual disease ratings were made. Results for Tests A-G are given in Table A. In the Table, a rating of 100 indicates 100% disease control and a rating of 0 indicates no disease control (relative to the controls). A hyphen (-) indicates no test results.

Alternaria solani = assay: Test B: preventive spray on tomato seedlings, tomato early blight, visual disease rating; type: in vivo; conditions: 200 ppm test suspension, Alternaria solani inoculated the day after spraying
Experimental: General protocol for preparing test suspensions for Tests A-G: the test compounds were first dissolved in acetone in an amount equal to 3% of the final volume and then suspended at the desired concentration (in ppm) in acetone and purified water (50/50 mix by volume) containing 250 ppm of the surfactant Trem® 014 (polyhydric alcohol esters). The resulting test suspensions were then used in Tests A-G. Each test was conducted in triplicate, and the results were averaged. Spraying a 200 ppm test suspension to the point of run-off on the test plants was the equivalent of a rate of 800 g/ha. Unless otherwise indicated, the rating values indicate a 200 ppm test suspension was used. (An asterisk “*” next to the rating value indicates a 40 ppm test suspension was used.) The test suspension was sprayed to the point of run-off on tomato seedlings. The following day the seedlings were inoculated with a spore suspension of Alternaria solani (the causal agent of tomato early blight) and incubated in a saturated atmosphere at 27° C. for 48 h, and then moved to a growth chamber at 20° C. for 5 days, after which time visual disease ratings were made. Results for Tests A-G are given in Table A. In the Table, a rating of 100 indicates 100% disease control and a rating of 0 indicates no disease control (relative to the controls). A hyphen (-) indicates no test results.

SMILES	pest or weed control at 200 ppm (Septoria tritici)	pest or weed control at 200 ppm (Septoria nodorum)	pest or weed control at 200 ppm [1]	melting point	pest or weed control at 200 ppm [2]	pest or weed control at 200 ppm (Botrytis cinerea)	Test D rating (disease control) (Septoria tritici)	Test C rating (disease control) (Septoria nodorum)	Test E rating (disease control) [3]	Test G rating (disease control) [1]	Test B rating (disease control) (Alternaria solani)	Test F rating (disease control) [2]
Cc1nn(C)c(N2CCC(C)CC2)c1-c1ccc(F)cc1Cl [Compound 42, 1-[4-(2-chloro-4-fluorophenyl)-1,3-dimethyl-1H-pyrazol-5-yl]-4-methylpiperidine]	99%	0%	0%	98 to 100 °C	72%	0%	–	–	–	–	–	–
CC=C(C)C(O)c1c(-c2c(F)cccc2Cl)c(C)nn1C (stereo not drawn) [Compound 17]	–	–	–	–	–	–	72%	0%	9%	78%	58%	74%
Cc1nn(C)c(C(O)C2CCCCC2)c1-c1c(F)cccc1Cl (stereo not drawn) [Compound 16, 4-(2-chloro-6-fluorophenyl)-α-cyclohexyl-1,3-dimethyl-1H-pyrazole-5-methanol]	100%	0%	100%	–	79%	–	–	–	0%	–	89%	–
CCC=C(C)C(O)c1c(-c2c(F)cccc2F)c(C)nn1C (stereo not drawn) [Compound 18]	–	–	–	–	–	–	24%	0%	9%	60%	96%	18%

Source: patent US20140288074A1, “FUNGICIDAL PYRAZOLES” (E I DU PONT DE NEMOURS AND COMPANY, priority 2013, published 2014)
